The subject of data set [1] is MDR-EAEC isolates. Kind of data set: In vitro time-kill kinetics. It counts as cell-based, enteroaggregative Escherichia coli. As to conditions: 10 μg/ml, ca. 1 × 10^7 CFU/ml, CA-MH broth, 37°C. The method, then: The in vitro dose- and time-kill kinetics was assessed by co-incubating the log-phase cultures of each of MDR-EAEC isolates (ca. 1 × 10^7 CFU/ml) in cation-adjusted Mueller Hinton (CA-MH) broth with MIC (1 × and 2 × ) of Lfcin (17–30) (Supplementary Information S6). The desired inoculum for each MDR-EAEC strain and Lfcin (17–30) suspended in CA-MH broth was as follows: Group I, 10^7 CFU of MDR-EAEC (50 μl) with 1 × MIC of Lfcin (17–30) (50 μl); Group II, 10^7 CFU of MDR-EAEC (50 μl) with 2 × MIC of Lfcin (17–30) (50 μl); Group III, 10^7 CFU of MDR-EAEC (50 μl) with 10 μg/ml of Meropenem (50 μl); and Group IV, 10^7 CFU of MDR-EAEC (50 μl) in CA-MH broth (50 μl). The MDR-EAEC counts were enumerated ([Miles et al., 1938]) at 0, 30, 60, 90, 120, 150, and 180 min, and 24, 48, and 72 h post co-incubation.
FIGURE 2 Dose- and time-dependent time-kill assay of MDR-EAEC isolates co-cultured with Lfcin (17–30). MDR-EAEC isolates (n = 3) were co-cultured with 1 × MIC of Lfcin (17–30) (A) and 2 × MIC of Lfcin (17–30) (B) in CA-MH broth at 37°C under static conditions with respective controls of MDR-EAEC isolates (untreated and meropenem-treated). Data expressed as the mean ± standard deviation (log10CFU/ml) of three independent experiments (***P < 0.001). […]

Data set [2] has as its system G. mellonella larvae. In words: LDH cytotoxicity assay of larval haemolymph. In kind it is in vivo, Galleria mellonella. As to conditions: infected larvae treated 3 h pi. The method, then: (§1) Galleria mellonella larvae were grouped 40 per group for in vivo antimicrobial testing of Lfcin (17–30) as follows: group I (MDR-EAEC infection control), groups II and III (infection + treatment groups), group IV (PBS control), and group V [Lfcin(17–30) control]. Optimized LD50 dose of MDR-EAEC (a cocktail of three strains) was administered to larvae of groups I to III, while MIC dose of Lfcin (17–30) and Meropenem was administered 3 h post-infection (pi) in groups II and III, respectively. Larval group IV was injected with sterile PBS, whereas MIC dose of Lfcin (17–30) was administered in group V.
The larvae were then observed for their survival rate, melanization (Supplementary Information S7), MDR-EAEC counts (Supplementary Information S8), hemocyte density (Supplementary Information S9) ([Wand et al., 2013]), lactate dehydrogenase (LDH) cytotoxicity assay (Supplementary Information S10) ([Gibreel and Upton, 2013]), and histopathology (Supplementary Information S11) ([Perdoni et al., 2014]), at an interval of 6 h till 24 h, followed by 24-h interval up to 120 h pi.
G. mellonella (n=3 larvae per group) were analysed for the production of LDH, as a marker of cell damage, at an interval of 6 h pi for 24 h, followed by 24 h interval till 96 h pi using QuantiChrom LDH cytotoxicity assay kit, according to the manufacturer’s instructions. The positive and negative controls used in this study were […]. The absorbance was read using ELISA plate reader at 500 nm; the haemolymph from untreated larvae served as background control and the cytotoxicity was calculated as, Cytotoxicity (%) = (ODSample - ODControl)/ (ODTotal Lysis - ODControl) x 100, wherein, sample is the control absorbance of treated cell; control is the experimental absorbance of the untreated cell control and total lysis is the absorbance of Triton X-100 treated cells.

For data set [3], the system named is G. mellonella larvae infected with MDR-EAEC (a cocktail of three strains). Kind of data set: G. mellonella larval survival. As to conditions: larvae infected with LD50 dose (10^6 CFU) of MDR-EAEC, MIC dose 3 h pi, up to 120 h pi, 40 larvae per group. In kind it is in vivo, Galleria mellonella. As for the experimental part: The final instar of G. mellonella larvae was utilized for performing the in vivo assays ([Morgan et al., 2014]). The larvae (ca. 200–250 mg) inoculated with aliquots of MDR-EAEC suspensions (10 μl) by injection using Hamilton syringe (26 gauge) via the last right pro-leg were incubated at 37°C and the observations were noted. The larvae kept in a sterile environment were provided with ad lib food during the experiment.
The determined LD50 dose for each MDR-EAEC strain in the larvae was validated and employed further in the in vivo experiments to evaluate the antibacterial efficacy of Lfcin (17–30).
as §1, with “V. […]” for “V.”

The subject of data set [4] is MDR-EAEC isolates. Kind of data set: In vitro antibiotic susceptibility testing of MDR-EAEC isolates. In kind it is cell-based, enteroaggregative Escherichia coli. Also on record: key to Antibiotic Susceptibility testing / MIC Values (mg/L), given as class symbol: S – Sensitive; R- Resistant. As to conditions: for MIC: Escherichia coli.
Description: E. coli ATCC 25922 was used as the quality control strain for antibiotic susceptibility testing.

Converted amounts (≈) assume the structure as drawn.

For the compound `C[C@@H](O)[C@H]1C(=O)N2C(C(=O)O)=C(S[C@@H]3CN[C@H](C(=O)N(C)C)C3)[C@H](C)[C@H]12` [meropenem, reference compound], in data set [1], the “reduction in bacterial counts at 30 min post-coincubation” value is “highly significant (P < 0.001) reduction” and the “time post-coincubation after which complete inhibition” value is listed as 60 min. In addition, the LDH cytotoxicity result in data set [2] is “Almost similar observations”. In data set [3], this compound yielded a survival rate of 85%.

With `CN(C)[C@@H]1C(O)=C(C(N)=O)C(=O)[C@@]2(O)C(O)=C3C(=O)c4c(O)cccc4[C@@](C)(O)[C@H]3C[C@@H]12` [TE, Tetracycline], the MIC worked out at 60 µg/mL (≈ 135 µM) in data set [4] (KY941936.1 (MDR 1)), 2 µg/mL (≈ 4.5 µM) in data set [4] (KY941937.1 (MDR 2)) and 30 µg/mL (≈ 67.5 µM) in data set [4] (KY941938.1 (MDR 3)). For the same compound, the “Antibiotic Susceptibility testing” value in data set [4] (KY941936.1 (MDR 1)), in data set [4] (KY941937.1 (MDR 2)) and in data set [4] (KY941938.1 (MDR 3)) was “R” throughout.

For `CO/N=C(\C(=O)N[C@@H]1C(=O)N2C(C(=O)O)=C(CSc3nc(=O)c(=O)[nH]n3C)CS[C@H]12)c1csc(N)n1` [CTR, Ceftriaxone], in data set [4] (KY941937.1 (MDR 2)), the MIC is above 240 µg/mL and the “Antibiotic Susceptibility testing” value is listed as “R”. In addition, in data set [4] (KY941938.1 (MDR 3)), the MIC is above 240 µg/mL and the “Antibiotic Susceptibility testing” value was “R”. Besides, in data set [4] (KY941936.1 (MDR 1)), the “Antibiotic Susceptibility testing” value is listed as “S” and the “MIC Values (mg/L), given as class symbol” value is “S”.

With `O=C(O)c1cn(C2CC2)c2cc(N3CCNCC3)c(F)cc2c1=O` [CIP, Ciprofloxacin], the MIC in data set [4] (KY941937.1 (MDR 2)) was determined as 120 µg/mL (≈ 362 µM); in data set [4] (KY941938.1 (MDR 3)) it was 60 µg/mL (≈ 181 µM). In addition, the figures for the “Antibiotic Susceptibility testing” value in data set [4] (KY941936.1 (MDR 1)), in data set [4] (KY941937.1 (MDR 2)) and in data set [4] (KY941938.1 (MDR 3)) were “S”, “R” and “R”, respectively.

On to `C[C@@H](O)[C@H]1C(=O)N2C(C(=O)O)=C(SCCN=CN)C[C@H]12` [IMI, Imipenem], for which the “Antibiotic Susceptibility testing” value in data set [4] (KY941936.1 (MDR 1)), in data set [4] (KY941937.1 (MDR 2)) and in data set [4] (KY941938.1 (MDR 3)) was “S” throughout. The “MIC Values (mg/L), given as class symbol” value in data set [4] (KY941936.1 (MDR 1)), in data set [4] (KY941937.1 (MDR 2)) and in data set [4] (KY941938.1 (MDR 3)) was “S” in each case.

Turning to `O=C(N[C@H](CO)[C@H](O)c1ccc([N+](=O)[O-])cc1)C(Cl)Cl` [CL, Chloramphenicol], the “Antibiotic Susceptibility testing” value in data set [4] (KY941936.1 (MDR 1)), in data set [4] (KY941937.1 (MDR 2)) and in data set [4] (KY941938.1 (MDR 3)) was “S” each time. Besides, the “MIC Values (mg/L), given as class symbol” value in data set [4] (KY941936.1 (MDR 1)), in data set [4] (KY941937.1 (MDR 2)) and in data set [4] (KY941938.1 (MDR 3)) was “S” in each case.

For `Cc1cc(NS(=O)(=O)c2ccc(N)cc2)no1` [SXT, Sulfamethoxazole], the “Antibiotic Susceptibility testing” value in data set [4] (KY941936.1 (MDR 1)) is on record as “R”; in data set [4] (KY941937.1 (MDR 2)), “S”; in data set [4] (KY941938.1 (MDR 3)), “R”.

Colistin sulphate: the “Antibiotic Susceptibility testing” value in data set [4] (KY941936.1 (MDR 1)), in data set [4] (KY941937.1 (MDR 2)) and in data set [4] (KY941938.1 (MDR 3)) was “S” in each case. Further, the “MIC Values (mg/L), given as class symbol” value in data set [4] (KY941936.1 (MDR 1)), in data set [4] (KY941937.1 (MDR 2)) and in data set [4] (KY941938.1 (MDR 3)) was “S” each time.

For the compound Co-trimoxazole [COT], the “Antibiotic Susceptibility testing” value in data set [4] (KY941936.1 (MDR 1)), in data set [4] (KY941937.1 (MDR 2)) and in data set [4] (KY941938.1 (MDR 3)) was “R” throughout. The “MIC Values” in data set [4] (KY941936.1 (MDR 1)), in data set [4] (KY941937.1 (MDR 2)) and in data set [4] (KY941938.1 (MDR 3)) was above 240 µg/mL each time.

Take `CNC(C)C1CCC(N)C(OC2C(N)CC(N)C(OC3OCC(C)(O)C(NC)C3O)C2O)O1` (stereo not drawn) [GEN, Gentamicin]: the “Antibiotic Susceptibility testing” value in data set [4] (KY941936.1 (MDR 1)), in data set [4] (KY941937.1 (MDR 2)) and in data set [4] (KY941938.1 (MDR 3)) was “S” throughout. Moreover, the “MIC Values (mg/L), given as class symbol” value in data set [4] (KY941936.1 (MDR 1)), in data set [4] (KY941937.1 (MDR 2)) and in data set [4] (KY941938.1 (MDR 3)) was “S” each time.

With `CC1(C)S[C@@H]2[C@H](NC(=O)[C@H](N)c3ccccc3)C(=O)N2[C@H]1C(=O)O` [AMP, Ampicillin], the MIC in data set [4] (KY941936.1 (MDR 1)), in data set [4] (KY941937.1 (MDR 2)) and in data set [4] (KY941938.1 (MDR 3)) was above 240 µg/mL each time. Also, the “Antibiotic Susceptibility testing” value in data set [4] (KY941936.1 (MDR 1)), in data set [4] (KY941937.1 (MDR 2)) and in data set [4] (KY941938.1 (MDR 3)) was “R” in each case.

Values taken from paper PMC7531601, “Exploiting Lactoferricin (17–30) as a Potential Antimicrobial and Antibiofilm Candidate Against Multi-Drug-Resistant Enteroaggregative Escherichia coli” (Frontiers in Microbiology, 2020).
